From ChEMBL document CHEMBL4017480, “Discovery and optimization of selective FGFR4 inhibitors via scaffold hopping” (Bioorg Med Chem Lett, 2017) come the findings set out here.

The nature of data set [1]: Apparent permeability from apical to basolateral side in MDCK2-MDR1 cells at 2 uM after 2.5 hrs LC-MS/MS analysis. It is filed as ADME, cell-based, Canis lupus familiaris. Conditions: dog, MDCK-MDR1.
Data set [2] is described as follows: Kinetic solubility of the compound at pH 7.4. It is filed as physicochemical. Conditions: buffer, read-out: Kinetic_solubility.
Data set [3] has as its target T1, Tyrosine-protein kinase Tec (Homo sapiens, UniProt P42680).
T1 sequence (P42680 whole entry): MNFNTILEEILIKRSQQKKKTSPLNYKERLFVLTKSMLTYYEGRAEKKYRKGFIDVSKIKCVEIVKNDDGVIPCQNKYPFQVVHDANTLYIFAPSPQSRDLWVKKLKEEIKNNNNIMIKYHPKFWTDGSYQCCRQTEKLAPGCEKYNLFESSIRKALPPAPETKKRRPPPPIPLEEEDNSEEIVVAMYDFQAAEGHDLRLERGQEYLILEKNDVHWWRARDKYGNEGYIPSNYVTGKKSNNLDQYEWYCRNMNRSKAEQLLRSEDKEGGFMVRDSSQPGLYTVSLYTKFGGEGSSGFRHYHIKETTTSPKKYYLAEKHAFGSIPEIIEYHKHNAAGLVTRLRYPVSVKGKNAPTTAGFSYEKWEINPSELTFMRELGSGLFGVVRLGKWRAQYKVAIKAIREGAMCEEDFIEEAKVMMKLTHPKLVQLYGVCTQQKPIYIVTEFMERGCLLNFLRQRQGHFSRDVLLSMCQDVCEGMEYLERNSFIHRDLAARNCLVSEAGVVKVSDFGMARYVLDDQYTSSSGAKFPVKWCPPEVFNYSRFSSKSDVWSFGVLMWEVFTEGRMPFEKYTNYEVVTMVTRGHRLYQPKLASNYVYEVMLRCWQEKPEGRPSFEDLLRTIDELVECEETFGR
Kind of data set: Inhibition of human TEC using poly[Glu:Tyr] (4:1) as substrate measured after 120 mins in presence of [gamma33P]ATP by P81 ion exchange chromatographic method.

Data set [4] has as its target Vascular endothelial growth factor receptor 2 (Homo sapiens, UniProt P35968). In words: Inhibition of human VEGFR2 using poly[Glu:Tyr] (4:1) as substrate measured after 120 mins in presence of [gamma33P]ATP by P81 ion exchange chromatographic method.
The target of data set [5] is T2, Tyrosine-protein kinase JAK3 (Homo sapiens, UniProt P52333).
T2 sequence (P52333 whole entry): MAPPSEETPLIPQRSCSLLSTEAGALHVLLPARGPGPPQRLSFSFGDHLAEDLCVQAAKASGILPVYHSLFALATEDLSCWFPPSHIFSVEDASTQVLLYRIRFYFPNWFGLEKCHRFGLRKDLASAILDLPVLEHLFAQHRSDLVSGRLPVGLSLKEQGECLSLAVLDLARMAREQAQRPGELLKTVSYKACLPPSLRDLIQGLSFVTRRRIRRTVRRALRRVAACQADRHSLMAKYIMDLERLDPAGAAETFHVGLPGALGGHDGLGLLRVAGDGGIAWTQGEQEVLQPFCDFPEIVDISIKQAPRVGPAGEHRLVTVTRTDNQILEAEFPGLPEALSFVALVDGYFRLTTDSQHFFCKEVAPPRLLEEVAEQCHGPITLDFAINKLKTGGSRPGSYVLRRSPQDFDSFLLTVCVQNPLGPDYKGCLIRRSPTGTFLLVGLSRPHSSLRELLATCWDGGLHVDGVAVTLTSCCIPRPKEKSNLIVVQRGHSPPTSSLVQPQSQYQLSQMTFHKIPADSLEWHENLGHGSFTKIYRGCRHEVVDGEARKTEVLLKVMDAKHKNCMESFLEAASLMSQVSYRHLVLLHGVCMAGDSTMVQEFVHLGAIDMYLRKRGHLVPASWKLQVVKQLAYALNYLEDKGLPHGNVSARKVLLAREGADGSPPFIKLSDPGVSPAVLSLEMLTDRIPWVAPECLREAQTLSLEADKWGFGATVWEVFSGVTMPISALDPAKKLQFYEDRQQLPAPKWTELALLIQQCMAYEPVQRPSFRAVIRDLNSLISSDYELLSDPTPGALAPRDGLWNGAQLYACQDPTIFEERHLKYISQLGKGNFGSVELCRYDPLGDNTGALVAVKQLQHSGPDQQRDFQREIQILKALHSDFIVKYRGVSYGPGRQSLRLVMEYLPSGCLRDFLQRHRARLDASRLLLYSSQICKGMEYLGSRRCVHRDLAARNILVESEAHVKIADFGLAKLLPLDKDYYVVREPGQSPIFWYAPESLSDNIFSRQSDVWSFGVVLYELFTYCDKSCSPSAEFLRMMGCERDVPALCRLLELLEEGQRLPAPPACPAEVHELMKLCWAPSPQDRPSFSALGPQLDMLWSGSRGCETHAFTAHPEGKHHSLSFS
Kind of data set: Inhibition of human JAK3 using GEEEEYFELVKKKK as substrate measured after 120 mins in presence of [gamma33P]ATP by P81 ion exchange chromatographic method.

Data set [6] deals with T3, Cytochrome P450 1A2 (Homo sapiens, UniProt P05177).
T3 sequence (P05177 whole entry): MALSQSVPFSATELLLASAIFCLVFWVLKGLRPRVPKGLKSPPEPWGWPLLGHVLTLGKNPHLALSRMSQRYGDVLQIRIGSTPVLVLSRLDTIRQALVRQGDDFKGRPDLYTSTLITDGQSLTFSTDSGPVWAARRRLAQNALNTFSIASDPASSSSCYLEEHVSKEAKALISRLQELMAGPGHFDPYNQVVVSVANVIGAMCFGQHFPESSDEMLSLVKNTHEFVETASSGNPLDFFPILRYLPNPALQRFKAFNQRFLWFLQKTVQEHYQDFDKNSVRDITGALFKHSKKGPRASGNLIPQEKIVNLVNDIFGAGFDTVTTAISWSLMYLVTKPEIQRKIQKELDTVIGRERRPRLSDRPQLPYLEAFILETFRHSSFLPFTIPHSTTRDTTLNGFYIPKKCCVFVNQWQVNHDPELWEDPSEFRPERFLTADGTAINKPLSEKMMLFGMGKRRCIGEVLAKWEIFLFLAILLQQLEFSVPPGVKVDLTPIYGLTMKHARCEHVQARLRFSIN
In words: Inhibition of CYP1A2 in human liver microsomes using phenacetin as substrate pretreated for 10 mins followed by substrate addition measured after 10 mins in presence of NADPH by LC-MS/MS method. It is filed as ADME.

≈ marks a conversion by molar mass, not a printed value.

Vascular endothelial growth factor receptor 2, sequence (P35968 whole entry): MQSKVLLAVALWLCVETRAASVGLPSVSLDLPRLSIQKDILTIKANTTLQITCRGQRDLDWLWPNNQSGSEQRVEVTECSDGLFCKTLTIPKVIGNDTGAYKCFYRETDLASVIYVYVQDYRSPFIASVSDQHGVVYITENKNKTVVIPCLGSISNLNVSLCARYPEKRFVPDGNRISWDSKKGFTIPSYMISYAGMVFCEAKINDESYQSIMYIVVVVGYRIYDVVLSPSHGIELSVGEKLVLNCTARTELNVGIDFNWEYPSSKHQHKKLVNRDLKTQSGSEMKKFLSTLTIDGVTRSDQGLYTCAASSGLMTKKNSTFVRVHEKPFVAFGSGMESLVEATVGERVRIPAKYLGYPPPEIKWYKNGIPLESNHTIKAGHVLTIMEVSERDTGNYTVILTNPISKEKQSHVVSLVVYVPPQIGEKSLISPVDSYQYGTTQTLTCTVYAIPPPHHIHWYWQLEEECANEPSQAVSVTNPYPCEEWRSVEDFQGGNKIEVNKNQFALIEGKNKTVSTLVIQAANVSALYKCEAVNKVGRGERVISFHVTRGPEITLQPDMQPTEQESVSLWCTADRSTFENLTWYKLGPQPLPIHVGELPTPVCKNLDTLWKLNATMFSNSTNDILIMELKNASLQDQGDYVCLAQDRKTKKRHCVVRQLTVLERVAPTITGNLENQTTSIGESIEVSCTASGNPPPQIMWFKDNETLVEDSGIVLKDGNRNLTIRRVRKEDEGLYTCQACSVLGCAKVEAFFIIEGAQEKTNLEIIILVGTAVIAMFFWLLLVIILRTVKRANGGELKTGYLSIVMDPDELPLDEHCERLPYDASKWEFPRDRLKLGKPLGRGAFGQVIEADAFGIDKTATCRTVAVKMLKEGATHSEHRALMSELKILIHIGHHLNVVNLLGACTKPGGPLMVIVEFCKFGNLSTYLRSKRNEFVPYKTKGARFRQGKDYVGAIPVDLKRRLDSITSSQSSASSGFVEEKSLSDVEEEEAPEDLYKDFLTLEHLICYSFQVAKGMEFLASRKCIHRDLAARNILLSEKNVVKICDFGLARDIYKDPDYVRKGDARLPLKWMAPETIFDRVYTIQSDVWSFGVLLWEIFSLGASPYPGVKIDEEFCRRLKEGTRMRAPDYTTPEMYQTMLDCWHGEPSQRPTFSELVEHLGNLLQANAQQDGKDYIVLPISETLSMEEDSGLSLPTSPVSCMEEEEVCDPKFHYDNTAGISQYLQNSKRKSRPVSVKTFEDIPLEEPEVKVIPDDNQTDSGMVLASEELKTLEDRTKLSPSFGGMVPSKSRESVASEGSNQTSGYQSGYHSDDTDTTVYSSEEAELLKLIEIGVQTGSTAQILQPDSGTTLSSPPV

With `C=CC(=O)Nc1cccc(C)c1Nc1ncc2cc(-c3c(Cl)c(OC)cc(OC)c3Cl)ccc2n1`, in data set [1], the Papp A→B at 2.5 h, 2 µM was 0.35 ×10⁻⁶ cm/s. For the same compound, the solubility kinetic in data set [2] is less than 0.5 µg/mL. Also, the IC50 in data set [3] is greater than 10 µM; in data set [4] it was greater than 10 µM; in data set [5], greater than 10 µM; in data set [6], 15.9 µM.

With `C=CC(=O)Nc1cccc(C)c1Nc1ncc(OCc2c(F)c(OC)cc(OC)c2F)cn1`, the Papp A→B at 2.5 h, 2 µM in data set [1] was 8.6 ×10⁻⁶ cm/s. For the same compound, the solubility kinetic in data set [2] worked out at 39 µg/mL (≈ 85.4 µM). Besides, the IC50 in data set [3] was greater than 10 µM; in data set [4], greater than 10 µM; in data set [5], greater than 10 µM; in data set [6], greater than 50 µM.

On to `C=CC(=O)N[C@H]1COC[C@H]1Nc1ncc(OCc2c(F)c(OC)cc(OC)c2F)cn1`, for which, in data set [1], the Papp A→B at 2.5 h, 2 µM came out at 7.3 ×10⁻⁶ cm/s. Further, the solubility kinetic in data set [2] turned out to be 78 µg/mL (≈ 179 µM). The concentration for half-maximal inhibition (IC50) in data set [3] is greater than 10 µM; in data set [4], greater than 10 µM; in data set [5], greater than 10 µM; in data set [6], greater than 50 µM.
